Results published in paper PMC11555678, “Improved Broad Spectrum Antifungal Drug Synergies with Cryptomycin, a Cdc50-Inspired Antifungal Peptide” (ACS Infectious Diseases, 2024).
≈ marks a conversion by molar mass, not a printed value. Like-named read-outs stand apart in the source and are kept apart here.

Assays:
C. glabrata FKS1-S629P = experiment: microbe, parasite or virus in culture; format: cell-based, Candida glabrata; conditions: Nakaseomyces glabratus, FKS1S629P, 48 h
Outline: (§1)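 Two-fold dilution series prepared from DMSO stocks in RPMI1640 were inoculated with 5000 cfu/mL yeast per CLSI M27, then kept at 37 °C for 2 days.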

C. glabrata 2001 = experiment: microbe, parasite or virus in culture; format: cell-based, Candida glabrata; conditions: Nakaseomyces glabratus, 2001; compound alone; RPMI1640, 37 °C, 48 h; read-out: MIC
Outline: as §1

C. glabrata FKS2-S663P = experiment: microbe, parasite or virus in culture; format: cell-based, Candida glabrata; conditions: Nakaseomyces glabratus, FKS2S663P, 48 h
Outline: as §1

Cn cdc50Δ = experiment: microbe, parasite or virus in culture; format: cell-based, Cryptococcus neoformans; conditions: 48 h, 37 °C, 48 h
Procedure: (§2) Previous studies have shown that modifying microbiological media with salts such as CaCl2 can have a drastic effect on the growth of fungi and their responses to antifungals.[19],[35] In the case of CaCl2, the divalent cation, Ca^2+, is involved in fungal cell stress response. To understand how the peptide activity may involve calcium and stress response, the MICs of KKOO, KKOO-NH2, FLC, and CAS were assessed as a function of the calcium concentration in liquid YPD media. It was observed that calcium enrichment completely desensitized the wild-type strain to KKOO and KKOO-NH2, Tables 7 and 8, respectively. Effects of calcium enrichment on the susceptibility of Cryptococcus to CAS similar to literature values were recorded, Supporting Information, Table S7.[35]
(§3) In order to control for the effects of enriching YPD with a divalent cation, MICs and ROS production were also measured as a function of the MgCl2 supplement at the same millimolar concentrations of cation as in the CaCl2-modified experiments. […] No peptide susceptibility changes were observed against Cn cdc50Δ in magnesium-enriched media, Table S9. ROS production in H99 induced by peptide exposure was inhibited after 30 min of treatment in the magnesium-enriched condition, similar to the levels observed in the calcium-enriched media at 16 μg/mL KKOO-NH2, Figure S1. […] The link between peptide activity and calcium homeostasis may be vital in understanding precisely how the peptide kills fungal cells and requires more research to elucidate.
(§4) All microdilution assays with fungi were carried out in accordance with CLSI protocols from M27 for yeasts and M38 for filamentous fungi, respectively, unless otherwise specified.[64],[65] Briefly, 96-well plates were charged with RPMI1640 media, with operating volume in the first column, 200 μL, and half operating volume, 100 μL, in the remaining wells. Drug stock solution in DMSO was aliquoted into the first well in each row. Half of the volume in the dosed well was serially diluted 2-fold until column 11. Column 11 was used as the negative growth control, and column 12 was used as the positive growth control. ON yeast cultures in YPD were washed twice in DD-H2O, resuspended in PBS, and adjusted to 5000 cfu/mL in RPMI. The 96-well plate was inoculated with 100 μL aliquots of cell suspension per well. Plates were incubated at 37 °C for 2 days.

Cn H99 = experiment: microbe, parasite or virus in culture; format: cell-based, Cryptococcus neoformans; conditions: Cryptococcus neoformans, H99, 48 h, 37 °C, 48 h, read-out: MIC
Procedure: as §2, §3, §4

C. albicans SC5413 = format: cell-based, Candida albicans; conditions: RPMI1640, 37 °C, 48 h; for MIC of antifungal in combination with KKOO: azole MICs unclear (intermediate phenotype); for MIC of antifungal in combination with KKOO-NH2: azole MICs could not be determined (intermediate phenotype)
Procedure: as §4
To assess drug synergy, the initial media charged to the plate contained the peptide at twice the final operating concentration; the remaining processing steps were identical to the MIC experiment. Upon addition of 100 μL of inoculant, the final operating concentration was achieved. Control MIC plates were prepared alongside drug synergy plates to account for the day-to-day variability in any individual MIC. FIC index is computed using eq 1. All MIC assays and drug synergy assays were completed with two technical replicates per 96-well plate and a minimum of two biological replicates per drug combination. If a difference in MIC between the two technical replicates on the plate were observed, only the higher concentration was reported as the MIC to reduce the possibility of type 1 error (false positive) [drawing 1] 1

Cg FKS1 S629P = experiment: Drug synergy (MIC in peptide-supplemented media); format: cell-based, Candida glabrata; conditions: RPMI1640, 37 °C, 48 h
Outline: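 Fungal MICs: CLSI-based 2-fold microdilution in RPMI1640, yeast inoculum 5000 cfu/mL, 2 days at 37 °C.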

Cn Crm1-oe = experiment: microbe, parasite or virus in culture; format: cell-based, Cryptococcus neoformans; conditions: Cryptococcus neoformans, CRM1OE, 48 h, 37 °C
Procedure: as §2, §4

Cn apt1Δ = experiment: microbe, parasite or virus in culture; format: cell-based, Cryptococcus neoformans; conditions: Cryptococcus neoformans, 48 h, 37 °C, 48 h
Procedure: as §2, §4

Cn crm1Δ = experiment: microbe, parasite or virus in culture; format: cell-based, Cryptococcus neoformans; conditions: Cryptococcus neoformans, 48 h, 37 °C
Procedure: as §2, §4

OC(Cn1cncn1)(Cn1cncn1)c1ccc(F)cc1F [FLC, fluconazole]
MIC (C. glabrata FKS1-S629P): 2 µg/mL (≈ 6.53 µM)
MIC (C. glabrata 2001): 8 µg/mL (≈ 26.1 µM)
MIC (C. glabrata FKS2-S663P): 2 µg/mL (≈ 6.53 µM)
MIC (Cn cdc50Δ; Cryptococcus neoformans, YPD + 0 mM Ca2+): 0.5 µg/mL
MIC (Cn cdc50Δ; Cryptococcus neoformans, YPD + 2.5 mM Ca2+): 0.5 µg/mL
MIC (Cn cdc50Δ; Cryptococcus neoformans, YPD + 5 mM Ca2+): 0.5 µg/mL
MIC (Cn cdc50Δ; Cryptococcus neoformans, YPD + 10 mM Ca2+): 0.25 µg/mL
MIC (Cn cdc50Δ; Cryptococcus neoformans, YPD + 20 mM Ca2+): 0.25 µg/mL
MIC (Cn cdc50Δ; YPD + 0 mM Mg2+, unit not given): ½
MIC (Cn cdc50Δ; YPD + 2.5 mM Mg2+, unit not given): ¼
MIC (Cn cdc50Δ; YPD + 5 mM Mg2+, unit not given): ¼
MIC (Cn cdc50Δ; YPD + 10 mM Mg2+, unit not given): 1/8
MIC (Cn cdc50Δ; YPD + 20 mM Mg2+, unit not given): 1/16
MIC (Cn H99; YPD + 0 mM Ca2+): 8 µg/mL
MIC (Cn H99; YPD + 0 mM Mg2+): 4 µg/mL
MIC (Cn H99; YPD + 2.5 mM Ca2+): 8 µg/mL
MIC (Cn H99; YPD + 2.5 mM Mg2+): 4 µg/mL
MIC (Cn H99; YPD + 5 mM Ca2+): 8 µg/mL
MIC (Cn H99; YPD + 5 mM Mg2+): 2 µg/mL
MIC (Cn H99; YPD + 10 mM Ca2+): 8 µg/mL
MIC (Cn H99; YPD + 10 mM Mg2+): 2 µg/mL
MIC (Cn H99; YPD + 20 mM Ca2+): 8 µg/mL
MIC (Cn H99; YPD + 20 mM Mg2+): 2 µg/mL
MIC of antifungal in combination with KKOO (C. albicans SC5413; +0 μg/mL KKOO (control)): > 16 µg/mL
MIC of antifungal in combination with KKOO-NH2 (C. albicans SC5413; +0 μg/mL KKOO-NH2 (control)): >16 µg/mL
MIC of antifungal in combination with KKOO-NH2 (C. albicans SC5413; +1 μg/mL KKOO-NH2): >16 µg/mL
MIC of antifungal in combination with KKOO (C. albicans SC5413; +1 μg/mL KKOO): > 16 µg/mL
MIC of antifungal in combination with KKOO-NH2 (C. albicans SC5413; +2 μg/mL KKOO-NH2): >16 µg/mL
MIC of antifungal in combination with KKOO (C. albicans SC5413; +2 μg/mL KKOO): > 16 µg/mL
MIC of antifungal in combination with KKOO-NH2 (C. albicans SC5413; +4 μg/mL KKOO-NH2): >16 µg/mL
MIC of antifungal in combination with KKOO (C. albicans SC5413; +4 μg/mL KKOO): > 16 µg/mL
MIC of antifungal in combination with KKOO (C. albicans SC5413; +8 μg/mL KKOO): 0.125 µg/mL
MIC of antifungal in combination with KKOO (Cg FKS1 S629P; +0 μg/mL KKOO (control)): 2 µg/mL
MIC of antifungal in combination with KKOO-NH2 (Cg FKS1 S629P; +0 μg/mL KKOO-NH2 (control)): 2 µg/mL
MIC of antifungal in combination with KKOO-NH2 (Cg FKS1 S629P; +1 μg/mL KKOO-NH2): 2 µg/mL
MIC of antifungal in combination with KKOO (Cg FKS1 S629P; +1 μg/mL KKOO): 2 µg/mL
MIC of antifungal in combination with KKOO-NH2 (Cg FKS1 S629P; +2 μg/mL KKOO-NH2): 2 µg/mL
MIC of antifungal in combination with KKOO (Cg FKS1 S629P; +2 μg/mL KKOO): 2 µg/mL
MIC of antifungal in combination with KKOO-NH2 (Cg FKS1 S629P; +4 μg/mL KKOO-NH2): 1 µg/mL
MIC of antifungal in combination with KKOO (Cg FKS1 S629P; +4 μg/mL KKOO): 2 µg/mL
MIC (Cn Crm1-oe; YPD + 0 mM Ca2+): 1 µg/mL
MIC (Cn Crm1-oe; YPD + 2.5 mM Ca2+): 2 µg/mL
MIC (Cn Crm1-oe; YPD + 5 mM Ca2+): 2 µg/mL
MIC (Cn Crm1-oe; YPD + 10 mM Ca2+): 2 µg/mL
MIC (Cn Crm1-oe; YPD + 20 mM Ca2+): 2 µg/mL
MIC (Cn apt1Δ; YPD + 0 mM Ca2+): 0.25 µg/mL
MIC (Cn apt1Δ; YPD + 2.5 mM Ca2+): 0.5 µg/mL
MIC (Cn apt1Δ; YPD + 5 mM Ca2+): 1 µg/mL
MIC (Cn apt1Δ; YPD + 10 mM Ca2+): 0.5 µg/mL
MIC (Cn apt1Δ; YPD + 20 mM Ca2+): 0.5 µg/mL
MIC (Cn crm1Δ; YPD + 0 mM Ca2+): 4 µg/mL
MIC (Cn crm1Δ; YPD + 2.5 mM Ca2+): 4 µg/mL
MIC (Cn crm1Δ; YPD + 5 mM Ca2+): 4 µg/mL
MIC (Cn crm1Δ; YPD + 10 mM Ca2+): 8 µg/mL
MIC (Cn crm1Δ; YPD + 20 mM Ca2+): 8 µg/mL
